Reference: ChEMBL document CHEMBL4431306, “Gamma Secretase Modulators: New Alzheimer's Drugs on the Horizon?” (J Med Chem, 2016)
One block for each compound: values may come before it.

Key:
[1] = molecular target: Gamma-secretase; experiment: Modulation of gamma-secretase in human SH-SY5Y cells expressing human APP751 assessed as reduction in amyloid beta 42 production after 24 hrs by sandwich ELISA; format: cell-based
[2] = molecular target: Gamma-secretase; experiment: Modulation of gamma-secretase in human H4 cells expressing human APP695 assessed as reduction in amyloid beta 42 production after 22 hrs by electrochemiluminescence assay; format: cell-based
[3] = molecular target: Gamma-secretase; experiment: Modulation of gamma-secretase in human H4 cells expressing human APP751 assessed as reduction in amyloid beta 42 production after 16 to 18 hrs by sandwich ELISA; format: cell-based
[4] = molecular target: Gamma-secretase; experiment: Modulation of gamma-secretase in human H4 cells expressing APP Swedish mutant assessed as inhibition of amyloid beta (1 to 42 residues) production; format: cell-based
[5] = tested on: Mus musculus; experiment: Reduction in amyloid beta (1 to 42 residues) AUC in triple transgenic mouse brain at 30 mg/kg administered via oral gavage measured up to 24 hrs by UPLC-MS-MS analysis; format: functional
[6] = tested on: Mus musculus; experiment: Reduction in amyloid beta (1 to 42 residues) AUC in triple transgenic mouse brain at 100 mg/kg administered via oral gavage measured up to 24 hrs by UPLC-MS-MS analysis; format: functional
[7] = tested on: Rattus norvegicus; experiment: Reduction in amyloid beta (1 to 42 residues) AUC in Sprague-Dawley rat brain at 10 mg/kg administered via oral gavage measured up to 24 hrs by UPLC-MS-MS analysis; format: functional
[8] = molecular target: Gamma-secretase; experiment: Modulation of gamma-secretase in human SK-N-BE(2) cells expressing human APP695 assessed as reduction in amyloid beta 42 production incubated overnight by sandwich immunoassay; format: cell-based
[9] = tested on: Mus musculus; experiment: Reduction in amyloid beta 42 levels in mouse brain at 30 mg/kg, po administered as single dose measured 4 hrs post dose by electrochemiluminescence assay; format: functional
[10] = tested on: Mus musculus; experiment: Reduction in amyloid beta 42 levels in mouse brain at 30 mg/kg, po administered as single dose measured 4 hrs post dose by ELISA; format: functional
[11] = tested on: Mus musculus; experiment: Increase in amyloid beta 38 levels in mouse brain at 30 mg/kg, po administered as single dose measured 4 hrs post dose by ELISA; format: functional
[12] = species on record: Homo sapiens; experiment: Modulation of gamma-secretase in human H4 cells expressing human APP695 assessed as inhibition of amyloid beta 42 production at 10 uM after 16 hrs by sandwich ELISA; format: functional
[13] = molecular target: Gamma-secretase; experiment: Modulation of gamma-secretase in human SH-SY5Y cells expressing human APP751 assessed as reduction in amyloid beta 42 production after 16 to 18 hrs by ELISA; format: cell-based
[14] = tested on: Mus musculus; experiment: Reduction in amyloid beta 42 levels in mouse brain at 10 mg/kg, po administered as single dose measured 4 hrs post dose by electrochemiluminescence assay; format: functional
[15] = molecular target: Gamma-secretase; experiment: Modulation of gamma-secretase in human H4 cells expressing human APP695 assessed as inhibition of amyloid beta 42 production after 16 hrs by sandwich ELISA; format: cell-based
[16] = molecular target: Gamma-secretase; experiment: Modulation of gamma-secretase (unknown origin) assessed as reduction in amyloid beta 42 production by ELISA; format: protein-complex assay, Homo sapiens
[17] = tested on: Homo sapiens; experiment: Reduction in amyloid beta 42 levels in human plasma at 250 mg, po administered as single dose measured over 24 hrs post dose by sandwich enzyme immunoassay; format: functional
[18] = tested on: Homo sapiens; experiment: Reduction in amyloid beta (1 to 42 residues) […] in human plasma at 250 mg, po administered as single dose measured up to 24 hrs relative to control; format: functional
[19] = tested on: Mus musculus; experiment: Reduction in amyloid beta 42 levels in Tg 2576 mouse brain at 50 to 100 mg/kg administered via oral gavage for 3 days by LC-MS/MS analysis; format: functional
[20] = molecular target: Gamma-secretase; experiment: Modulation of gamma-secretase in human SH-SY5Y cells expressing human APP751 assessed as reduction in amyloid beta 42 production after 18 to 22 hrs by sandwich ELISA; format: cell-based

EC50 [2]: 90 nM
SMILES: COc1cc(Nc2nc3c(c(N4CCCCC4)n2)SC2(CCC2)C3)ccc1-n1cnc(C)c1

EC50 [3]: 16 nM
SMILES: COc1cc(Nc2ncc3c(n2)N(C)[C@@H](c2ccccc2)CO3)ccc1-n1cnc(C)c1

EC50 [4]: 6 nM
SMILES: COc1cc(Nc2nc3n(n2)CCCC[C@H]3c2ccc(F)cc2)ccc1-n1cnc(C)c1
inhibition in vivo at 30 mg/kg [5]: 31%
inhibition in vivo at 100 mg/kg [6]: 55%
inhibition in vivo at 10 mg/kg [7]: 47%

EC50 [1]: 30 nM
SMILES: CCn1nc2c(c1Nc1nc(-c3ccc(-n4cnc(C)c4)c(OC)n3)cs1)CCCC2

EC50 [8]: 45 nM
SMILES: COc1cc2[nH]c(-c3cn4c(n3)C(c3ccccc3C(F)(F)F)OCC4)cc2cc1C#N (configuration not stated)
inhibition in vivo at 30 mg/kg [10]: 57%
Activity [11]: 41%

EC50 [3]: 49 nM
SMILES: COc1cc(Nc2ncc3c(n2)N(C)C2(CC2)CO3)ccc1-n1cnc(C)c1

EC50 [2]: 46 nM
SMILES: CCN1C(=O)C2CCCCCN2c2nc(Nc3ccc(-n4cnc(C)c4)c(OC)c3)ncc21 (configuration not stated)

EC50 [8]: 20 nM
SMILES: COc1cc2[nH]c(-c3cn4c(n3)C(c3cccc(F)c3C)OCC4)cc2cc1C#N (configuration not stated)
inhibition in vivo at 30 mg/kg [10]: 66%
Activity [11]: 40%

EC50 [3]: 101 nM
SMILES: COc1cc(Nc2ncc3c(n2)N(CC(F)(F)F)CCO3)ccc1-n1cnc(C)c1

EC50 [4]: 29 nM
SMILES: CNc1nc(Cc2ccccc2)nc(Nc2ccc(-n3cnc(C)c3)c(OC)c2)n1

EC50 [3]: 14 nM
SMILES: COc1cc(Nc2ncc3c(n2)N(c2cc(F)cc(F)c2)CCO3)ccc1-n1cnc(C)c1

EC50 [3]: 39 nM
SMILES: COc1cc(Nc2ncc3c(n2)N(c2ccccc2)CCO3)ccc1-n1cnc(C)c1

EC50 [13]: 6 nM
SMILES: COc1cc(-c2csc(N3CCCn4nc5c(c43)CCCC5)n2)ccc1-n1cnc(C)c1

EC50 [8]: 6 nM
SMILES: Cc1cn(-c2ccc3n(c2=O)C[C@@H](C)N(C(C)c2coc4cc(F)c(C(F)(F)F)cc24)C3=O)cn1 (some centres not stated)
inhibition in vivo at 10 mg/kg [14]: 42%

EC50 [3]: 71 nM
SMILES: COc1cc(Nc2ncc3c(n2)N2CCCC2CO3)ccc1-n1cnc(C)c1 (configuration not stated)

EC50 [8]: 21 nM
SMILES: COc1cc2[nH]c(-c3cn4c(n3)C(c3ccccc3Cl)OCC4)cc2cc1C#N (configuration not stated)
inhibition in vivo at 30 mg/kg [10]: 73%
Activity [11]: 10%

Further lines, the compound ahead of its results:

SMILES: CCn1nc2c(c1Nc1nc(-c3ccc(-n4cnc(C)c4)cc3)cs1)CCCC2
EC50 [1]: 347 nM

SMILES: Cc1cc([C@@H]2CC[C@@H](Nc3ncc4c(n3)N(c3ccccc3Cl)CCO4)CO2)ccn1
EC50 [3]: 41 nM

SMILES: CCn1cc(C(C)N2C(=O)c3ccc(-n4cnc(C)c4)c(=O)n3C[C@H]2C)c2cc(Cl)c(F)cc21 (some centres not stated)
EC50 [8]: 10 nM
inhibition in vivo at 30 mg/kg [9]: 61%

SMILES: CCn1nc2c(c1Nc1nc(-c3ccc(-n4cnc(C)c4)nc3)cs1)CCCC2
EC50 [1]: 1300 nM

SMILES: Cc1cn(-c2ccc3n(c2=O)CC2CCC(Cc4cc(C(F)(F)F)cc(C(F)(F)F)c4)N2C3=O)cn1 (configuration not stated)
EC50 [8]: 50 nM

SMILES: COc1cc(Nc2ncc3c(n2)N(C)C2(CCCC2)C(=O)N3CC(F)(F)F)ccc1-n1cnc(C)c1
EC50 [2]: 22 nM

SMILES: C[C@H](CCC(=O)O)[C@H]1CC[C@H]2[C@@H]3CC[C@@H]4C[C@H](O)CC[C@]4(C)[C@H]3CC[C@]12C [LITHOCHOLIC ACID]
inhibition at 10 µM [12]: 62%

SMILES: COc1cc(N2CCC(Nc3ncc4c(n3)N(CC(F)(F)F)CCO4)CC2)ccn1
EC50 [3]: 105 nM

SMILES: COc1cc(N2CCC(Nc3ncc4c(n3)N(c3ccccc3)CCO4)CC2)ccn1
EC50 [3]: 25 nM

SMILES: C[C@H](CCC(=O)O)[C@H]1CC[C@H]2[C@@H]3CC[C@@H]4CCCC[C@]4(C)[C@H]3CC[C@]12C [URSOCHOLANIC ACID]
EC50 [15]: 5700 nM

SMILES: CC(=O)O[C@@H]([C@H]1C[C@@H](C)C2=C(O1)[C@H](O)[C@@]1(C)[C@@H]3CC[C@H]4C(C)(C)[C@@H](O[C@@H]5OC[C@@H](O)[C@H](O)[C@H]5O)CC[C@@]45C[C@@]35CC[C@]21C)C(C)(C)O
EC50 [16]: 100 nM

SMILES: COc1nc(/C=C/c2nc3n(n2)CCC[C@H]3c2ccccc2C(F)(F)F)ccc1-n1cnc(C)c1 [E-2212]
inhibition (INH) [17]: 54%
inhibition (INH) [18]: 44%

SMILES: CCc1cc(Nc2nc(-c3ccc(-n4cnc(C)c4)c(F)c3)cs2)c(C)cc1C
inhibition (INH) [19]: 30 - 40%

SMILES: CCN(CC)c1ccc(Nc2nc(-c3ccc(-n4ccnc4)cc3)cs2)c(C)c1
EC50 [20]: 1500 nM
